Measured values published in patent US10604512B2, “3-(1H-indol-2-yl)-1H-indazoles and therapeutic uses thereof” (Samumed, LLC, priority 2015, dated 2020).

Tests used:
[1] = test system: primary human mesenchymal stem cells (hMSCs); assay: Induction of chondrogenesis in primary human mesenchymal stem cells (nodule imaging, Rhodamine B / Nile Red); type: cell-based; details: for EC50: concentration required to induce 50% levels of chondrogenesis vs TGF-β3 positive control, read-out: Conc (nM) of 50% TGF-β3 activity; for Emax: maximum chondrogenesis activity relative to TGF-β3 (10 ng/mL) positive control, read-out: Max. Activity as % TGF-β3 activity
Protocol: Representative compounds were screened using primary human mesenchymal stem cells (hMSCs) to determine their ability to induce chondrogenesis (process by which cartilage is developed).
Primary human mesenchymal stem cells (hMSCs) were purchased from Lonza (Walkersville, Md.) and expanded in Mesenchymal Stem Cell Growth Media (Lonza). Cells between passage 3 and 6 were used for the experiments.
Each compound was dissolved in DMSO as a 10 mM stock and used to prepare compound source plates. For the 96 well assay, serial dilution (1:3, 6-point dose-response curves from 2700 nM to 10 nM) and compound transfer was performed using the ECHO 550 (Labcyte, Sunnyvale, Calif.) into 96-well clear bottom assay plates (Greiner Bio-One) with appropriate DMSO backfill for a final DMSO concentration of 0.03%. hMSCs were plated at 20,000 cells/well in 250 μL/well Incomplete Chondrogenic Induction Medium (Lonza; DMEM, dexamethasone, ascorbate, insulin-transferrin-selenium [ITS supplement], gentamycin-amphotericin [GA-1000], sodium pyruvate, proline and L-glutamine). TGF-β3 (10 ng/mL) was used as a positive control for differentiation while negative control wells were treated with 75 nL DMSO for normalization and calculating EC50 values. For the 384 well assay, serial dilution (1:3, 8-point dose-response curves from 5000 nM to 2.2 nM) and compound transfer was performed using the ECHO 550 (Labcyte, Sunnyvale, Calif.) into 384-well clear bottom assay plates (Greiner Bio-One) with appropriate DMSO backfill for a final DMSO concentration of 0.03%. hMSCs were plated at 8,000 cells/well in 80 μL/well Incomplete Chondrogenic Induction Medium (Lonza; DMEM, dexamethasone, ascorbate, insulin-transferrin-selenium [ITS supplement], gentamycin-amphotericin [GA-1000], sodium pyruvate, proline and L-glutamine). TGF-β3 (10 ng/mL) was used as a positive control for differentiation while negative control wells were treated with 25 nL DMSO for normalization and calculating EC50 values. Cells were incubated at 37° C. and 5% CO2 for 6 days. To image chondrogenic nodules, the cells were fixed using 4% formaldehyde (Electron Microscopy Sciences), and stained with 2 μg/mL Rhodamine B (Sigma-Aldrich) and 20 μM Nile Red (Sigma-Aldrich) [Johnson K., et. al, A Stem CellBased Approach to Cartilage Repair, Science, (2012), 336(6082), 717-721]. The nodules imaged (25 images per well for 96 well plates and 9 images per well for 384 well plates at 10× magnification) by excitation at 531 nm and emission at 625 nm and quantified using the CellInsight CX5 (Thermo Scientific). Area of nodules in each well was normalized to the average of 3 DMSO treated wells on the same plate using Excel (Microsoft Inc.). The normalized averages (fold change over DMSO) of 2 or 3 replicate wells for each compound concentration were calculated. Due to solubility limitations of some of the compounds, curve fitting was incomplete leading to inaccurate EC50 determinations.
Using TGF-β3 as a positive control, the concentration of representative compounds required to induce 50% levels of chondrogenesis is reported. In addition, the maximum activity of each compound and the respective dose that each compound reached maximum chondrogenesis activity is reported.

[2] = test system: IL-6; assay: Inhibition of IL-6 in LPS-stimulated THP-1 human monocyte cells (HTRF); type: cell-based; details: for EC50: IL-6 inhibition, LPS-stimulated THP-1 cells, HTRF; for inhibition at 10 µM: THP-1, printed beside >10 μM EC50, top concentration 10 μM, meaning not given, read-out: percentage in parentheses after EC50 >10
In short: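 THP-1 cells serum-reduced (1% FBS, 24 h), then 5000 cells/well preincubated 2 h with compound (10-point 1:3 series from 10 μM, 0.1% DMSO) before 500 ng/mL LPS for 22 h at 37 °C. Secreted IL-6 quantified by HTRF 665/620 ratio; DMSO-normalised duplicates fitted to four-parameter EC50; above 10 μM, % inhibition at 10 μM given.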

Compound	EC50 [1]	EC50 [2]	Emax [1]	inhibition at 10 µM [2]
CC(C)C(=O)Nc1cncc(-c2ccc3[nH]nc(-c4cc5c(-c6cccnc6)cccc5[nH]4)c3c2)c1 [Compound 93, N-(5-(3-(4-(Pyridin-3-yl)-1H-indol-2-yl)-1H-indazol-5-yl)pyridin-3-yl) isobutyramide]	30 nM	34 nM	199%	
Nc1cncc(-c2ccc3[nH]nc(-c4cc5c(-c6ccccc6F)cccc5[nH]4)c3c2)c1 [Compound 59, 5-(3-(4-(2-Fluorophenyl)-1H-indol-2-yl)-1H-indazol-5-yl)pyridin-3-amine]	10 nM	3460 nM	197%	
CCC(=O)Nc1cncc(-c2ccc3[nH]nc(-c4cc5c(-c6cccnc6)cccc5[nH]4)c3c2)c1 [Compound 85, N-(5-(3-(4-(Pyridin-3-yl)-1H-indol-2-yl)-1H-indazol-5-yl)pyridin-3-yl) propionamide]	10 nM	204 nM	197%	
c1ccc(-c2cccc3[nH]c(-c4n[nH]c5ccc(-c6cncc(CN7CCCC7)c6)cc45)cc23)nc1 [Compound 154, 3-(4-(Pyridin-2-yl)-1H-indol-2-yl)-5-(5-(pyrrolidin-1-ylmethyl)pyridin-3-yl)-1H-indazole]	10 nM	750 nM	180%	
c1cncc(-c2ccc3[nH]nc(-c4cc5c(-c6cccnc6)cccc5[nH]4)c3c2)c1 [Compound 88, 5-(Pyridin-3-yl)-3-(4-(pyridin-3-yl)-1H-indol-2-yl)-1H-indazole]	10 nM	23 nM	183%	
CN(C)Cc1cncc(-c2ccc3[nH]nc(-c4cc5c(N6CCCCC6)cccc5[nH]4)c3c2)c1 [Compound 181, N,N-Dimethyl-1-(5-(3-(4-(piperidin-1-yl)-1H-indol-2-yl)-1H-indazol-5-yl)pyridin-3-yl)methanamine]	10 nM	> 10000 nM	205%	40.7%
Cc1ccncc1-c1ccc2[nH]nc(-c3cc4c(-c5ccncc5)cccc4[nH]3)c2c1 [Compound 117, 5-(4-Methylpyridin-3-yl)-3-(4-(pyridin-4-yl)-1H-indol-2-yl)-1H-indazole]	10 nM	> 10000 nM	190%	38.6%
O=C(Nc1cncc(-c2ccc3[nH]nc(-c4cc5c(-c6ccncc6)cccc5[nH]4)c3c2)c1)C1CC1 [Compound 132, N-(5-(3-(4-(Pyridin-4-yl)-1H-indol-2-yl)-1H-indazol-5-yl)pyridin-3-yl) cyclopropanecarboxamide]	10 nM	109 nM	219%	
c1cncc(-c2cccc3[nH]c(-c4n[nH]c5ccc(-c6cncnc6)cc45)cc23)c1 [Compound 111, 3-(4-(Pyridin-3-yl)-1H-indol-2-yl)-5-(pyrimidin-5-yl)-1H-indazole]	10 nM	3060 nM	202%	
c1ccc(-c2cccc3[nH]c(-c4n[nH]c5ccc(-c6cncnc6)cc45)cc23)nc1 [Compound 167, 3-(4-(Pyridin-2-yl)-1H-indol-2-yl)-5-(pyrimidin-5-yl)-1H-indazole]	10 nM	979 nM	203%	
CCNCc1cncc(-c2ccc3[nH]nc(-c4cc5c(-c6ccncc6)cccc5[nH]4)c3c2)c1 [Compound 118, N-((5-(3-(4-(Pyridin-4-yl)-1H-indol-2-yl)-1H-indazol-5-yl)pyridin-3-yl)methyl)ethanamine]	30 nM	137 nM	199%	
Nc1cncc(-c2ccc3[nH]nc(-c4cc5c(-c6ccccn6)cccc5[nH]4)c3c2)c1 [Compound 143, 5-(3-(4-(Pyridin-2-yl)-1H-indol-2-yl)-1H-indazol-5-yl)pyridin-3-amine]	10 nM	290 nM	224%	

More lines, main results first:

EC50 [1]	EC50 [2]	Compound	Emax [1]	inhibition at 10 µM [2]
10 nM	910 nM	CS(=O)(=O)NCc1cc(F)cc(-c2cccc3[nH]c(-c4n[nH]c5ccc(-c6cncnc6)cc45)cc23)c1 [Compound 503, N-(3-Fluoro-5-(2-(5-(pyrimidin-5-yl)-1H-indazol-3-yl)-1H-indol-4-yl)benzyl) methanesulfonamide]	194%	
10 nM	10 nM	c1cncc(-c2ccc3[nH]nc(-c4cc5ccccc5[nH]4)c3c2)c1 [Compound 256, 3-(1H-Indol-2-yl)-5-(pyridin-3-yl)-1H-indazole]	162%	
100 nM	186 nM	CN1CCN(c2cccc3[nH]c(-c4n[nH]c5ccc(-c6cncc(NC(=O)C7CCCC7)c6)cc45)cc23)CC1 [Compound 246, N-(5-(3-(4-(4-Methylpiperazin-1-yl)-1H-indol-2-yl)-1H-indazol-5-yl)pyridin-3-yl)cyclopentanecarboxamide]	185%	
10 nM	5370 nM	O=C(Nc1cncc(-c2ccc3[nH]nc(-c4cc5c(N6CCCCC6)cccc5[nH]4)c3c2)c1)C1CC1 [Compound 188, N-(5-(3-(4-(Piperidin-1-yl)-1H-indol-2-yl)-1H-indazol-5-yl)pyridin-3-yl) cyclopropanecarboxamide]	183%	
30 nM	> 10000 nM	FC1(F)CCN(Cc2cncc(-c3ccc4[nH]nc(-c5cc6c(N7CCCCC7)cccc6[nH]5)c4c3)c2)C1 [Compound 194, 5-(5-((3,3-Difluoropyrrolidin-1-yl)methyl)pyridin-3-yl)-3-(4-(piperidin-1-yl)-1H-indol-2-yl)-1H-indazole]	160%	29.2%
100 nM	233 nM	c1ccc2[nH]c(-c3n[nH]c4ccc(-c5cncc(CN6CCCC6)c5)cc34)cc2c1 [Compound 266, 3-(1H-Indol-2-yl)-5-(5-(pyrrolidin-1-ylmethyl)pyridin-3-yl)-1H-indazole]	217%	
100 nM	152 nM	CN1CCN(c2cccc3[nH]c(-c4n[nH]c5ccc(-c6cncnc6)cc45)cc23)CC1 [Compound 251, 3-(4-(4-Methylpiperazin-1-yl)-1H-indol-2-yl)-5-(pyrimidin-5-yl)-1H-indazole]	165%	
100 nM	589 nM	CC(C)C(=O)Nc1cncc(-c2ccc3[nH]nc(-c4cc5c(N6CCN(C)CC6)cccc5[nH]4)c3c2)c1 [Compound 233, N-(5-(3-(4-(4-Methylpiperazin-1-yl)-1H-indol-2-yl)-1H-indazol-5-yl)pyridin-3-yl)isobutyramide]	196%	
30 nM	233 nM	CN(C)Cc1cncc(-c2ccc3[nH]nc(-c4cc5c(-c6cccs6)cccc5[nH]4)c3c2)c1 [Compound 349, N,N-Dimethyl-1-(5-(3-(4-(thiophen-2-yl)-1H-indol-2-yl)-1H-indazol-5-yl)pyridin-3-yl)methanamine]	181%	
